# In patent US20240050359A1, “COSMETIC USES OF A HIPPOPHAE RHAMNOIDES CAKE HYDROLYSATE” (BASF Beauty Care Solutions France SAS, priority 2020, published 2024):
# Legend:
# Type in all cases: cell-based
# [1] = system: fibroblasts from the papilla of human hair follicles; assay: Amount of DNA in papilla fibroblasts grown as aggregates; conditions: capsaicin 10 μM
# Method: Materials and method: A suspension composed of fibroblasts from the papilla of human hair follicles and basal culture medium, containing 0.05% v/v growth factor cocktail and the presence or absence of the H. rhamnoides hydrolyzate to be tested, was centrifuged for 5 minutes at 200×g to form aggregates. Control conditions were produced by adding 0.05% v/v growth factor cocktail (ethanol EtOH control) and adding capsaicin (10 μm) as a cell sensitizer (capsaicin control) to the basal culture medium. The aggregates were incubated at a temperature of 37° C. under controlled atmosphere (5% CO2 and 95% relative humidity). The aggregates were rinsed in buffered saline solution (PBS) and the cells were separated by incubation in a mixture of proteases (collagenase A, trypsin) with EDTA. A portion of the suspended cells was taken up in PBS for flow cytometry analysis. The cell count and autofluorescence are the two parameters measured. Autofluorescence is a direct parameter easily measured and used as a marker of cell senescence ([…] et al. 1982). The cell count is an indirect parameter of the growth potential of the hair follicle. […] These two parameters were measured according to the suppliers' instructions (CyQuant NF Cell proliferation Assay Kit C35006, Invitrogen and Bioluminescence Assay Kit CLS II Roche 11699695001, Sigma-Aldrich).
# [2] = system: fibroblasts from the papilla of human hair follicles; assay: ATP production by papilla fibroblasts grown as aggregates; conditions: capsaicin 10 μM
# Method: (§1) Materials and method: A suspension composed of fibroblasts from the papilla of human hair follicles and basal culture medium, containing 0.05% v/v growth factor cocktail and the presence or absence of the H. rhamnoides hydrolyzate to be tested, was centrifuged for 5 minutes at 200×g to form aggregates. Control conditions were produced by adding 0.05% v/v growth factor cocktail (ethanol EtOH control) and adding capsaicin (10 μm) as a cell sensitizer (capsaicin control) to the basal culture medium. The aggregates were incubated at a temperature of 37° C. under controlled atmosphere (5% CO2 and 95% relative humidity). The aggregates were rinsed in buffered saline solution (PBS) and the cells were separated by incubation in a mixture of proteases (collagenase A, trypsin) with EDTA. A portion of the suspended cells was taken up in PBS for flow cytometry analysis. The cell count and autofluorescence are the two parameters measured. Autofluorescence is a direct parameter easily measured and used as a marker of cell senescence ([…] et al. 1982). The cell count is an indirect parameter of the growth potential of the hair follicle. Another portion of cells was used for analysis of the cell DNA content and ATP production rate. These two parameters were measured according to the suppliers' instructions (CyQuant NF Cell proliferation Assay Kit C35006, Invitrogen and Bioluminescence Assay Kit CLS II Roche 11699695001, Sigma-Aldrich).
# [3] = system: fibroblasts from the papilla of human hair follicles; assay: Flow cytometry of papilla fibroblasts grown as aggregates (number, granularity, autofluorescence); conditions: capsaicin 10 μM; Control (EtOH) = 100
# Method: as §1
# Human follicles = assay: Ex vivo hair shaft elongation of cultured follicles; conditions: capsaicin (10 μm)
# Method: Materials and method: Human follicles were cultured ex vivo in complete growth medium containing 0.5 μg/ml insulin, and treated with capsaicin […]. The latter molecule is used as an agent causing slowing of follicle growth. A control condition without capsaicin treatment was produced. Capsaicin-sensitized follicles were treated or not with 0.03% (w/v) H. rhamnoides hydrolyzate. Each culture condition was evaluated on […] cultured in isolation (n=10). The follicles were incubated at 37° C. in the presence of 5% CO2. The culture medium was renewed three times a week for approximately 2 weeks. The elongation of the hair shafts of the cultured follicles was obtained from photographs taken on different days. The hair length was evaluated by image analysis (Image J) and presented in μm as a mean±standard error.
compound,measurement,setting,value
"COc1cc(CNC(=O)CCCC/C=C/C(C)C)ccc1O [Capsaicin, capsaicin]",amount of DNA % deviation vs control,[1],−77%
same,amount of DNA MEAN,[1]; EtOH control = 100,23
same,ATP production % Activity,[2],−76%
same,reduction of the production of ATP relative to the control (ethanol),[2],76%
same,ATP production MEAN,[2]; EtOH control = 100,24
same,Autofluorescence (%),[3],235%
same,Granularity (%),[3],217%
same,Number of cells (%),[3],28%
same,hair elongation MEAN (μm),Human follicles; Day 0,0 μm
same,hair elongation MEAN (μm),Human follicles; Day 6,806 μm
same,hair elongation MEAN (μm),Human follicles; Day 8,861 μm
same,hair elongation MEAN (μm),Human follicles; Day 11,869 μm
same,hair elongation MEAN (μm),Human follicles; Day 13,938 μm
same,hair elongation MEAN (μm),Human follicles; Day 15,936 μm
